Test results from patent US20060281791A1, “Methods of increasing proliferation of adult mammalian cardiomyocytes through p38 map kinase inhibition” (CHILDREN'S MEDICAL CENTER CORPORATION, priority 2005, published 2006).
“And” between values parts separate entries of the source, which are not always exact repeats. Equal values may be shown once.

System: neonatal rat cardiomyocytes
Test: cDNA microarray analysis (Affymetrix Rat Expression Set 230), x-fold changes of clustered genes
Type: cell-based
Settings: 72 h; experiments (1) and (2); listed as FGF
Procedure: Animal experiments were performed in accordance with guidelines of Children's Hospital, Boston and UCLA. Ventricular cardiomyocytes from fetal (E19), 2-day-old (P2) and adult (250-350 g) Wistar rats (Charles River) were isolated as described with minor modifications (Engel et al. 1999; Engel et al. 2003). After digestion of fetal or neonatal hearts (0.14 mg/ml collagenase II (Invitrogen), 0.55 mg/ml pancreatin (Sigma)) cells were cultured in DMEM/F12 (GIBCO) containing 3 mM Na-pyruvate, 0.2% BSA, 0.1 mM ascorbic acid (Sigma), 0.5% Insulin-Transferrin-Selenium (100×), penicillin (100 U/ml), streptomycin (100 μg/ml), and 2 mM L-glutamine (GIBCO). Adult cardiomyocytes were cultured for 1 day in standard medium (DMEM, 25 mM Hepes, 5 mM taurine, 5 mM creatine, 2 mM L-carnitine (Sigma), 20 U/ml insulin (GIBCO), 0.2% BSA, penicillin (100 U/ml), and streptomycin (100 μg/ml)). Cells were stimulated in culture medium without BSA containing 2 mM L-glutamine. Neonatal and adult cardiomyocytes were initially cultured for 48 h in the presence of 20 μM cytosine β-D-arabinofuranoside (araC, Sigma) and 5% horse serum before stimulation to prevent proliferation of non-myocytes. Adult cardiomyocytes were incubated another 3 days with araC during stimulation. Neonatal cardiomyocytes were stimulated every day with growth factors for BrdU and H3P analyses (FGF1 and NRG-1-1β at 50 ng/ml, IL-1β at 100 ng/ml, R&D Systems, all diluted in 0.1% BSA/PBS). SB203580 and LY294002 (Calbiochem) was added every day. Adult cardiomyocytes were stimulated with fresh medium and SB203580 every 3 days.
RNA of neonatal cardiomyocytes was prepared 72 h after stimulation using Trizol (Invitrogen). RT-PCR was performed following standard protocols (Supplemental Table S4). Affymetrix technology was applied using the Rat Expression Set 230.
To determine the effect of p38 inhibition on cardiomyocyte differentiation and proliferation, a specific inhibitor of p38α and p38β, SB203580, was used and evaluated using cDNA microarray analyses using neonatal rat cardiomyocytes. […] Expression changes of a subset of genes were validated by RT-PCR.
Stimulation of neonatal cardiomyocytes with FGF1 induces fetal gene expression. To determine if FGF1, in combination with p38 inhibition, can reverse differentiation and induce cell cycle re-entry, we repeated cDNA microarray analyses (Supplemental Table S1). […]

## FGF1: growth factor FGF1 (R&D Systems)
  Growth response protein (CL-6) expression, x-fold change: 2.5 x-fold and 1.8 x-fold
  Hepatocyte F2alpha receptor expression, x-fold change: 0.9 x-fold and 1.0 x-fold
  IBP6 expression, x-fold change: 0.6 x-fold and 0.9 x-fold
  IGF1 expression, x-fold change: 0.5 x-fold and 0.3 x-fold
  IGFBP3 expression, x-fold change: 0.3 x-fold and 0.4 x-fold
  IL12a expression, x-fold change: 2.9 x-fold and 2.8 x-fold
  IRX4 expression, x-fold change: 0.7 x-fold and 0.9 x-fold
  Id1 expression, x-fold change: 2.7 x-fold and 2.3 x-fold
  Id3a expression, x-fold change: 2.4 x-fold and 1.9 x-fold
  Integrin, alpha 6 expression, x-fold change: 2.4 x-fold and 2.5 x-fold
  Integrin, alpha 11 expression, x-fold change: 1.7 x-fold and 1.2 x-fold
  Jag1 expression, x-fold change: 0.4 x-fold and 0.6 x-fold
  Ki67 expression, x-fold change: 1.7 x-fold and 1.5 x-fold
  Kinesin family member 22 expression, x-fold change: 1.6 x-fold and 1.7 x-fold
  Kinetochore-associated protein 1 expression, x-fold change: 1.9 x-fold and 2.1 x-fold
  Kruppel-like factor 2 expression, x-fold change: 0.7 x-fold and 0.9 x-fold
  LDLR expression, x-fold change: 4.0 x-fold and 2.7 x-fold
  Lgals1 expression, x-fold change: 1.8 x-fold and 1.7 x-fold
  Lgals9 expression, x-fold change: 4.3 x-fold and 3.1 x-fold
  Lhcgr expression, x-fold change: 0.4 x-fold and 0.8 x-fold
  Lisch7 expression, x-fold change: 0.6 x-fold and 0.8 x-fold
  Lot1 expression, x-fold change: 0.3 x-fold and 0.4 x-fold
  M-protein expression, x-fold change: 8.7 x-fold and 11.0 x-fold
  MAD2-LIKE 1 expression, x-fold change: 1.5 x-fold and 2.8 x-fold
  MCAK expression, x-fold change: 1.8 x-fold and 1.7 x-fold
  MCIP1 expression, x-fold change: 3.0 x-fold and 3.3 x-fold
  MCP-3 expression, x-fold change: 1.3 x-fold and 0.7 x-fold
  MDP77 expression, x-fold change: 1.5 x-fold and 0.8 x-fold
  MKK6 expression, x-fold change: 0.2 x-fold and 0.1 x-fold
  MLC1, atrial isoform expression, x-fold change: 3.3 x-fold and 2.8 x-fold
  MLC 2a expression, x-fold change: 2.7 x-fold and 2.1 x-fold
  MLC3, alkali expression, x-fold change: 13.9 x-fold and 23.2 x-fold
  MPP1 expression, x-fold change: 1.4 x-fold and 2.0 x-fold
  MURF1 expression, x-fold change: 0.6 x-fold and 0.5 x-fold
  MURF expression, x-fold change: 0.8 x-fold and 0.9 x-fold
  Mapt expression, x-fold change: 1.7 x-fold and 1.9 x-fold
  Mdk expression, x-fold change: 0.4 x-fold and 0.6 x-fold
  Melusin expression, x-fold change: 3.8 x-fold and 3.0 x-fold
  Moesin expression, x-fold change: 2.2 x-fold and 2.4 x-fold
  Multi PDZ domain protein 1 expression, x-fold change: 0.3 x-fold and 0.6 x-fold
  Mustang expression, x-fold change: 4.8 x-fold and 5.2 x-fold
  Myopodin expression, x-fold change: 3.7 x-fold and 3.2 x-fold
  NppB expression, x-fold change: 10.4 x-fold and 11.6 x-fold
  Nppa expression, x-fold change: 3.1 x-fold and 3.5 x-fold
  Nr1h3 expression, x-fold change: 0.7 x-fold and 0.6 x-fold
  Nrtn expression, x-fold change: 0.4 x-fold and 0.6 x-fold
  Ntf3 expression, x-fold change: 0.2 x-fold and 0.3 x-fold
  NuSAP expression, x-fold change: 1.5 x-fold and 1.4 x-fold
  Nuclear receptor co-activator NRIF3 expression, x-fold change: 1.4 x-fold and 1.2 x-fold
  Osteoblast specific factor expression, x-fold change: 0.3 x-fold and 0.2 x-fold
  P57 expression, x-fold change: 0.2 x-fold and 0.3 x-fold
  PAPIN expression, x-fold change: 0.5 x-fold and 0.7 x-fold
  PEA-15 expression, x-fold change: 2.5 x-fold and 2.1 x-fold
  PRKAR2 expression, x-fold change: 1.6 x-fold and 1.2 x-fold
  PTP-RL9, receptor-type protein tyrosine phosphatase expression, x-fold change: 1.1 x-fold and 0.8 x-fold
  Pdcd4 expression, x-fold change: 0.8 x-fold and 0.7 x-fold
  Pdgfra expression, x-fold change: 0.4 x-fold and 0.3 x-fold
  Pem expression, x-fold change: 0.9 x-fold and 0.7 x-fold
  Plasminogen activator inhibitor 1 expression, x-fold change: 5.3 x-fold and 8.8 x-fold
  Pleiotrophin expression, x-fold change: 0.2 x-fold and 0.1 x-fold
  Polyamine-modulated factor 1 expression, x-fold change: 1.5 x-fold and 1.4 x-fold
  Prc1 expression, x-fold change: 2.4 x-fold and 1.9 x-fold
  Prg-1 expression, x-fold change: 0.2 x-fold and 0.3 x-fold
  Protease inhibitor 7 expression, x-fold change: 1.3 x-fold and 0.8 x-fold
  Protein-tyrosine phosphatase expression, x-fold change: 0.5 x-fold and 0.6 x-fold
  Ptpla expression, x-fold change: 3.3 x-fold and 2.2 x-fold
  Ptprc/CD45 expression, x-fold change: 0.5 x-fold and 0.7 x-fold
  RAC2 expression, x-fold change: 0.7 x-fold and 0.6 x-fold
  RAD51 expression, x-fold change: 1.5 x-fold and 1.0 x-fold
  RNA binding motif protein 5 expression, x-fold change: 0.6 x-fold and 0.5 x-fold
  ROC2 expression, x-fold change: 1.6 x-fold and 2.4 x-fold
  Rac GTPase-activating protein 1 expression, x-fold change: 1.3 x-fold and 1.9 x-fold
  Retinoic acid inducible protein 3 expression, x-fold change: 1.5 x-fold and 1.3 x-fold
  Retinoic acid receptor, gamma expression, x-fold change: 0.6 x-fold and 1.0 x-fold
  Rgpr expression, x-fold change: 0.6 x-fold and 0.9 x-fold
  Rgs3 expression, x-fold change: 1.3 x-fold and 1.9 x-fold
  Rho family GTPase 1 expression, x-fold change: 4.1 x-fold and 3.9 x-fold
  Rho-related BTB domain containing 3 expression, x-fold change: 0.5 x-fold and 0.6 x-fold
  SHARP-1/dec2/Bhlhb3 expression, x-fold change: 0.2 x-fold and 0.3 x-fold
  SPARC related modular calcium binding 2 expression, x-fold change: 0.3 x-fold and 0.4 x-fold
  STK38 expression, x-fold change: 3.9 x-fold and 2.0 x-fold
  STk18 expression, x-fold change: 1.3 x-fold and 1.9 x-fold
  Semaphorin 4B expression, x-fold change: 0.6 x-fold and 0.5 x-fold
  Semaphorin 6D-1 expression, x-fold change: 0.5 x-fold and 0.3 x-fold
  Sh3kbp1 expression, x-fold change: 1.1 x-fold and 0.9 x-fold
  Shc SH2-domain binding protein 1 expression, x-fold change: 1.6 x-fold and 1.1 x-fold
  Smooth muscle 22 protein expression, x-fold change: 1.2 x-fold and 1.4 x-fold
  Snf1lk expression, x-fold change: 3.5 x-fold and 3.9 x-fold
  Soluble fibroblast growth factor receptor IIIb (sKGF-R gene) expression, x-fold change: 0.9 x-fold and 0.8 x-fold
  Sox4 expression, x-fold change: 0.7 x-fold and 0.6 x-fold
  Sox11 expression, x-fold change: 0.9 x-fold and 1.3 x-fold
  Spag5 expression, x-fold change: 1.4 x-fold and 1.9 x-fold
  Sponf expression, x-fold change: 0.2 x-fold and 0.3 x-fold
  Stathmin expression, x-fold change: 1.2 x-fold and 1.6 x-fold
  TBX2 expression, x-fold change: 1.8 x-fold and 2.0 x-fold
  Testin expression, x-fold change: 0.6 x-fold and 0.7 x-fold
  Tgf beta 2 expression, x-fold change: 1.4 x-fold and 1.5 x-fold
  Tgfbr2 expression, x-fold change: 0.5 x-fold and 0.9 x-fold
  Thymidine kinase expression, x-fold change: 1.5 x-fold and 1.9 x-fold
  Tieg expression, x-fold change: 0.3 x-fold and 0.4 x-fold
  Tmeff1 expression, x-fold change: 2.1 x-fold and 2.4 x-fold
  Tnfrsf12a expression, x-fold change: 3.7 x-fold and 3.3 x-fold
  Topoisomerase (DNA) II alpha expression, x-fold change: 1.8 x-fold and 1.7 x-fold
  Transferrin receptor expression, x-fold change: 2.9 x-fold and 1.6 x-fold
  Tspan-2 expression, x-fold change: 2.4 x-fold and 1.8 x-fold
  Tspan-6 expression, x-fold change: 2.2 x-fold and 1.7 x-fold
  Tubulin alpha-4 expression, x-fold change: 2.7 x-fold and 2.6 x-fold
  Tubulin beta class I expression, x-fold change: 2.4 x-fold and 1.9 x-fold
  Tubulin, beta 2 expression, x-fold change: 1.3 x-fold and 1.2 x-fold
  Unc5h2 expression, x-fold change: 1.7 x-fold and 1.3 x-fold
  VEGF receptor-2FLK-1 expression, x-fold change: 1.8 x-fold and 1.6 x-fold
  VEGFD expression, x-fold change: 0.1 x-fold and 0.2 x-fold
  Vegfc expression, x-fold change: 0.4 x-fold and 0.6 x-fold
